In US5212165A, “Method for rehabilitating the vasorelaxant action of the coronary arteries impaired through atherosclerosis or hypercholesterolemia employing an ACE inhibitor” (E. R. Squibb & Sons, Inc., priority 1989, dated 1993):
“Also recorded” adds a separate entry of the source.

Columns and labels:
guinea pig or rat lungs = settings: guinea pig lungs; cited from earlier work
[1] = tested on: vascular relaxation in response to EN-D (ACh) and EN-I (Na nitroprusside) agonists; settings: oral; rats; cited from earlier work
rat aortic rings = settings: Hartich et al, Shultz et al, cited from earlier work
[2] = tested on: patients with Raynaud's phenomenon; settings: cited from earlier work
[3] = tested on: alpha-adrenoceptor (isolated iliac arteries); test: Contractile responses to phenylephrine of isolated iliac arteries from cynomolgus monkeys; set-up: species or system cynomolgus (Macaca fascicularis) monkeys
Description: (§1) Twenty-four male cynomolgus (Macaca fascicularis) monkeys were divided into four groups of six animals each. During the course of the study, one of the control monkeys was sacrificed due to ill health unrelated to the study. Each group was fed a different diet for six months. The control group ate a normal diet of monkey biscuit. The cholesterol group ate a specially formulated monkey diet containing cholesterol. The cholesterol +low captopril group ate the cholesterol diet supplemented with captopril (50 mg/kg divided into two daily doses). The cholesterol+high captopril group ate the cholesterol diet and a higher total dose of captopril (100 mg/kg divided into two daily doses).
(§2) The monkeys were sedated with an intramuscular injection of ketamine (10 mg/kg), then anesthetized with pentobarbital (25 mg/kg). The iliac arteries were carefully dissected, cleaned of surrounding connective tissue, and refrigerated overnight for use the following day.
(§3) On the day of the experiment, three iliac rings (3 mm wide) from each animal were cut and mounted for isometric force recording. Each ring was attached to a micrometer for the control of muscle length and to a Grass FT.03 force transducer and Grass 7D recorder. The rings were placed in warm (37° C.), oxygenated, physiological salt solution (PSS) of the following composition (in mM): 140.0 NaCl, 4.7 KCl, 1.2 MgSO4, 1.6 CaCl2, 1.2 NaH2 PO4, 5.6 D-glucose, 2.0 2-(N-morpholino)propanesulfonic acid (MOPS, pH 7.4 at 37° C.), and 0.02 Na2 -ethylenediaminetetraacetic acid (EDTA). The rings were stretched to a preload of 5 g during a 2 hour equilibration period, then stimulated with 1 μM phenylephrine to test for viability and relaxed with 100 nM acetylcholine to test for endothelial function. Stock solutions of phenylphrine, acetylcholine, propranolol, and sodium nitroprusside were prepared daily in water; nifedipine stock solutions were prepared daily in ethanol.
(§4) Alpha-adrenoceptor and endothelial cell function were examined in the third ring from each monkey. In the presence of 0.1 μM propranolol, a cumulative concentration-response curve to phenylephrine was obtained, then the phenylephrine was washed out of the baths and the rings were allowed to relax completely. The rings were subsequently contracted with an EC50 concentration of phenylephrine (1 μM) and, following stabilization of the contraction, the rings were treated with increasing concentrations of acetylcholine, followed by 100 nM sodium nitroprusside.
(§5) Data are presented as mean±SEM. The IC50 and EC50 values were estimated by linearly interpolating from the concentration-response curves. The EC50 values for each ring were used to determine the means for each treatment group.
Phenylephrine concentration-response curves were obtained in iliac rings from all groups of monkeys.

[4] = tested on: phenylephrine-contracted isolated iliac arteries; test: Acetylcholine-induced relaxation of phenylephrine-contracted isolated iliac arteries from cynomolgus monkeys; set-up: species or system cynomolgus (Macaca fascicularis) monkeys; settings: for maximum force generated in response to phenylephrine (before acetylcholine): mean±SEM
Description: as §1, §2, §3, §4, §5
For each monkey, the EC50 for acetylcholine relaxation was calculated by linearly interpolating from the concentration-response curves. When 50% relaxation was not achieved, the value of the EC50 was set to 30 μM a value larger than any of the experimental concentrations of acetylcholine).
Linear contrast of mean ranks in the groups were constructed with a variance estimate for the contrast based on the Kruskal-Wallis statistic (Dunn 1964).
In the analyses, the following coefficients were employed: i) for an overall test, the coefficients were 3 for the cholesterol group, 1 for the control group, -1 for the cholesterol+low captopril group, and -3 for the cholesterol+high captopril group, based on prior expectations of likely results; ii) for a test of the cholesterol effect, the coefficients were 1 for the cholesterol group, -1 for the control group, 0 for the cholestrol+low captopril group, and 0 for the cholesterol+high captopril group; iii) for a test of the captopril effect, the coefficients were 0 for the cholesterol group, 1 for the […], 0 for the cholesterol+low captopril group, and -1 for the cholesterol+high captopril group.
All statistical results reported are based on one-sided tests. […]

[5] = tested on: bovine aortic endothelial cells; settings: cited from earlier work

C[C@H](CS)C(=O)N1CCC[C@H]1C(=O)O [captopril, 1-[(2S)-3-mercapto-2-methylpropionyl]-L-proline]
effect on removal of endothelin by guinea pig lungs (guinea pig or rat lungs): without being affected by captopril
vascular relaxations in response to EN-D (ACh) and EN-I (Na nitroprusside) agonists [1]: differentially affected vascular relaxations
endothelium dependent relaxation of normal rat aortic rings (rat aortic rings; in vitro): enhance endothelium dependent relaxation
effect of acetylcholine in rat aortic rings after captopril feeding alone (rat aortic rings; without cholesterol): potentiate the effects of acetylcholine
marked subjective improvement ([2]; 20 patients with primary or secondary Raynaud's phenomenon, Trubestein et al): 14 cases
incidence or severity of peripheral vasospasm ([2]; Raynaud's with hypertension secondary to scleroderma, Coffman): does not decrease the incidence or severity of peripheral vasospasm
digital circulation ([2]; one patient, Miyazaki et al): improved a patient's digital circulation
benefit in Raynaud's phenomenon and chronic leg ulceration ([2]; one patient, Rustin et al 1989): no benefit
cutaneous blood flow ([2]; p.o., 15 patients, placebo-controlled, double-blind cross-over, Rustin et al 1987): significantly improved cutaneous blood flow
frequency or severity of attacks ([2]; p.o., 15 patients, Rustin et al 1987): no effect on frequency or severity of attacks
frequency and severity of ischemic attacks ([2]; patients with Raynaud's disease, Tosi et al): significantly decreased the frequency and the severity of ischemic attacks
ischemic attacks in patients with scleroderma ([2]; patients with scleroderma, Tosi et al): did not affect the attacks
Max Force (phenylephrine-induced contraction) ([3]; Cholesterol + High Captopril (100 mg/kg daily, six months), Mean ± SEM): 19.2 ± 2.2 g
Max Force (phenylephrine-induced contraction) ([3]; Cholesterol + Low Captopril (50 mg/kg daily, six months), Mean ± SEM): 18.4 ± 2.8 g
EC50 at 100 mg/kg ([3]; Macaca fascicularis, Cholesterol + High Captopril (100 mg/kg daily, six months), Mean ± SEM, read-out: EC50 (phenylephrine-induced contraction)): 1300 ± 600 nM
EC50 at 50 mg/kg ([3]; Macaca fascicularis, Cholesterol + Low Captopril (50 mg/kg daily, six months), Mean ± SEM, read-out: EC50 (phenylephrine-induced contraction)): 1000 ± 200 nM
effect on in vitro response of iliac arteries to phenylephrine ([3]; cholesterol-fed monkeys, with captopril): neither cholesterol nor captopril affected
EC50 at 100 mg/kg ([4]; Macaca fascicularis, Cholesterol + High Captopril (100 mg/kg daily, six months), N 5, non-responder excluded, Mean ± SEM): 100 ± 10 nM
endothelium-dependent vasorelaxant effects ([4]; arteries from hypercholesterolemic and atherosclerotic monkeys): enhance endothelium-dependent vasorelaxant effects
shift of EC50 concentration for acetylcholine ([4]; captopril as compared with cholesterol alone): statistically significant effect of captopril as compared with cholesterol; also recorded: significantly shifted the EC50 concentration for acetylcholine to the left
rings not showing 50% relaxation in response to acetylcholine ([4]; cholesterol diet and low dose captopril): One ring did not show 50% relaxation
iliac rings responsive to acetylcholine ([4]; cholesterol fed, high daily dose of captopril, six animals): Five of the iliac rings
maximum force generated in response to phenylephrine (before acetylcholine) ([4]; cholesterol+high captopril group, non-responders excluded): 11.9 ± 2.1 g
maximum force generated in response to phenylephrine (before acetylcholine) ([4]; cholesterol+low captopril group): 12.4 ± 2.2 g
potency and efficacy of acetylcholine in iliac rings from cholesterol-fed monkeys which received captopril ([4]; vs cholesterol diet without captopril): significantly more potent and efficacious
release of prostacyclin or EDRF induced by bradykinin ([5]; captopril 10 mu.K (so in the source)): did not affect the release
release of EDRF (direct) [5]: ineffective as releasers of EDRF
